Reference: US20210330738A1, “ANTIMICROBIAL, BACTERIOPHAGE-DERIVED POLYPEPTIDES AND THEIR USE AGAINST GRAM-NEGATIVE BACTERIA” (CONTRAFECT CORPORATION, priority 2018, published 2021)

Columns and labels:
[1] = system: P. aeruginosa strain PAO1; test: MIC in Mueller-Hinton broth supplemented with 50% human plasma or human serum; assay type: cell-based, Pseudomonas aeruginosa; conditions: for Minimal inhibitory concentration, Human Plasma: Mueller-Hinton broth supplemented with 50% human plasma; for Minimal inhibitory concentration, Human Serum: Mueller-Hinton broth supplemented with 50% human serum
[2] = system: mature biofilms formed by P. aeruginosa strain ATCC 17647; test: Minimal Biofilm Eradicating Concentration (MBEC), Calgary Biofilm Device, crystal violet; assay type: cell-based, Pseudomonas aeruginosa; conditions: P. aeruginosa ATCC 17647 mature biofilm, >95% biofilm biomass removed

Substance | Minimal inhibitory concentration, Human Plasma [1] [µg/mL] | Minimal inhibitory concentration, Human Serum [1] [µg/mL] | MBEC [2] [µg/mL] | MBEC ([2]; listed as T4 lysozyme) [µg/mL]
LL-37 | >64 | >64 | – | –
PGLa | >64 | >64 | – | –
Protegrin 1 | 1 | 4 | – | –
T4 lysozyme [Peptide T4LYZ] | – | – | >64 | > 64
